Source: patent publication US5079257A, “Indoloquinone compounds” (priority 1986, dated 1992)
Converted amounts (≈) assume the structure as drawn. Read-outs that look alike come from different tables or passages of the source.

What was measured:
[1] = test system: R-1 cells (Rhabdomyosarcoma Cells); assay: R-1 activity (bioliquid assay), cytotoxicity; type: cell-based; details: Rhabdomyosarcoma cell
Source text: The indoloquinones II (formula II) have been tested in respect of their cytotoxic activity against L1210 cells and R-1 cells (Rhabdomyosarcoma Cells) in a bioliquid assay at the department of oncology of the Free University of Amsterdam (Table I). […] (Table II). Eight indoloquinones (E.O. 1, E.O. 2, E.O. 4, E.O. 4A, E.O. 8, E.O. 9, E.O. 33 and E.O. 35) have been tested in a panel of five human tumour lines (TNO Rijswijk; Table III).
For the determination of the R-1 activity, Rhabdomyosarcoma cells were brought into Falcon multiwells (growth area: 9.6 cm^2) (~10^6 cells per dish) containing 3 ml of Dulbecco's medium supplemented with 10% Foeto Calf Serum (FCS). […] Thereupon the drug solution was removed and the cells were covered with fresh medium. After 48 hours the cells were trypsinized and counted on a Sysmex microcell counter (CC110).
(§1) The in vitro L1210 and R-1 activities of the indoloquinones (formula III), were also determined in the bioliquid assays as described above.

[2] = test system: L1210 cells; assay: L1210 activity (bioliquid assay), cytotoxicity; type: cell-based; details: for IC50: Mus musculus; for ID-50 L1210: Table VI, 2880 min
Source text: The indoloquinones II (formula II) have been tested in respect of their cytotoxic activity against L1210 cells and R-1 cells (Rhabdomyosarcoma Cells) in a bioliquid assay at the department of oncology of the Free University of Amsterdam (Table I). In addition to this seven compounds (E.O. 1, E.O. 2, E.O. 4, E.O. 7, E.O. 9, E.O. 16 and E.O. 17) have been tested on L1210 activity in a clonogenic assay at TNO, Rijswijk. Further, the lowest active doses of the compounds E.O. 1, E.O. 2, E.O. 4 and E.O. 9 have been determined at TNO Rijswijk, according to the method described by Lamberts et al. [Oncology, 40, 301 (1983)]. (Table II). Eight indoloquinones (E.O. 1, E.O. 2, E.O. 4, E.O. 4A, E.O. 8, E.O. 9, E.O. 33 and E.O. 35) have been tested in a panel of five human tumour lines (TNO Rijswijk; Table III). From the latter group three indoloquinones (E.O. 1, E.O. 4 and E.O. 9) have been selected for a cytotoxicity study, involving five slowly growing human tumour lines (University of Freiburg; Table IV).
For this purpose, L1210 cells were grown, as suspension, in Falcon multi-wells (growth area: 9.6 cm^2) using RPMI supplemented with 15% FCS and 2-mercapto-ethanol (60 μmol) as medium. In this medium, the cells were continuously incubated with the compound to be tested at 37° C. in an atmosphere of 5% CO2 in humidified air for 48 hours. Thereupon they were counted on a Sysmex microcell counter (CC110).
as §1

[3] = Half-wave reduction potentials / polarography (University of Utrecht); type: physicochemical; details: for E1/2, halve wave reduction potential: Table IA, only the first (quinone) reduction potential
Source text: *The halve wave reduction potentials (E1/2) have been determined at the
Pharmaceutical Laboratory of University of Utrecht. Only the first
(quinone) reduction potential has been given.
Additional evidence for the occurrence of a bioreductive activation mechanism during the cytotoxic action of indoloquinones (II) was obtained via electrochemical studies, which have been carried out at the Pharmaceutical Laboratory of the University of Utrecht. […]

[4] = test system: A 204 cells; rhabdomyosarcoma; assay: In vitro panel of human tumour lines (TNO): A 204; type: cell-based; details: about 72 hours; note: key: -: no inhibition of cell growth; +: total cell-kill
Experimental: (§2) Compounds E.O. 1, E.O. 2, E.O. 4, E.O. 4A, E.O. 8, E.O. 9, […], E.O. 33, and E.O. 35 were tested for their activity against five human tumour cell lines at the Radiobiological Institute TNO Rijswijk.
(§3) The new in vitro prescreen uses human tumour clones; it was set up by Dr. P. Lelieveld at TNO Rijswijk and comprises testing compounds in a bioliquid assay for their cytostatic activity against the following five human tumour lines:
(§4) After a continuous exposure to the drugs to be tested and to Adriamycin in `24 well tissue culture clusters, type 3524 (Costar)`, the remaining cells are fixed and stained. Using increasing drug concentrations the inhibiting concentration can be estimated qualitatively.
(§5) Cells: the human tumour cells are maintained in Dulbecco's medium supplemented with 10 percent foetal calf serum.
(§6) A, T and Z cell suspensions: 5·10^4 cells/ml
(§7) The cells were grafted into 16 mm wells for 48 hours (0.5 ml cell suspension per well was used).
(§8) Drugs: the compound to be tested was dissolved in appropriate concentrations in a mixture of Hepes-buffered Hanks' balanced salt solution and ethanol. The drug solutions (0.05 ml) were added to the different wells. The final ethanol concentration in each well was less than one percent.
(§9) The cells were continuously incubated with the compound under test at 37° in an atmosphere of 10 percent CO2 in humidified air for about 72 hours.
(§10) Determination of the inhibiting dose: the cells were fixed and stained with a solution of crystal violet in methanol/formaldehyde.

[5] = test system: MCF7 breast cancer cells; assay: In vitro panel of human tumour lines (TNO): MCF-7; type: cell-based; details: about 72 hours; note: key: -: no inhibition of cell growth; +: total cell-kill
Experimental: as §2, §3, §4, §5
(§11) M and W cell suspensions: 10^5 cells/ml.
as §7, §8, §9, §10

[6] = test system: T 24 cells; bladder carcinoma; assay: In vitro panel of human tumour lines (TNO): T 24; type: cell-based; details: about 72 hours; note: key: -: no inhibition of cell growth; +: total cell-kill
Experimental: as §2, §3, §4, §5, §6, §7, §8, §9, §10

[7] = test system: WiDr cells; colon tumour; assay: In vitro panel of human tumour lines (TNO): WiDr; type: cell-based; details: about 72 hours; note: key: -: no inhibition of cell growth; +: total cell-kill
Experimental: as §2, §3, §4, §5, §11, §7, §8, §9, §10

[8] = test system: IgR37 cells melanoma; assay: In vitro panel of human tumour lines (TNO): IgR-37; type: cell-based; details: about 72 hours; note: key: -: no inhibition of cell growth; +: total cell-kill
Experimental: as §2, §3, §4, §5, §6, §7, §8, §9, §10

[9] = Table I, bioliquid assay, read-out: ID-50 R-1
[10] = L1210, Table I, bioliquid assay, 48 hours, read-out: ID-50 L1210
[11] = Table IA, para-indoloquinone diesters, read-out: ID-50 R-1
[12] = L1210, 48 h, Table IA, para-indoloquinone diesters, read-out: ID-50 L1210

SMILES: Cn1c(/C=C/CO)c(CO)c2c1C(=O)C=C(N1CCC(O)CC1)C2=O [E.O. 11, 3-Hydroxymethyl-5-(4-hydroxypiperidino)-1-methyl-2-[1H-indole-4,7-dione]prop-β-en-α-ol]
- IC50 [1, 9]: > 10 mg/L
- IC50 ([1]; Table VI, read-out: ID-50 R-1): > 10 mg/L
- IC50 [2, 10]: > 10 mg/L
- ID-50 L1210 [2]: > 10 µg/mL
- half-wave potential E1.2, wave I ([3]; pH = 8 vs Ag/AgCl): -430 mV

SMILES: COC(=O)/C=C/c1c(C(=O)OC)c2c(n1C)C(=O)C=C(O)C2=O [E.O. 24, Methyl 5-hydroxy-3-methoxycarbonyl-1-methyl-2-[1H-indole-4,7-dione]acrylate]
- IC50 [1, 11]: > 10 mg/L
- IC50 [2, 12]: > 10 mg/L
- E1/2, halve wave reduction potential [3]: -299 mV

SMILES: CC(=O)OC/C=C/c1c(COC(C)=O)c2c(n1C)C(=O)C=C(NCC(O)CO)C2=O (stereo not drawn) [E.O. 6, 3-Acetoxymethyl-5-(2,3-dihydroxypropyl-1-amino)-1-methyl-2-[1H-indole-4,7-dione]prop-β-en-α-yl acetate]
- IC50 [1, 9]: > 10 mg/L
- IC50 ([1]; Table VI, read-out: ID-50 R-1): > 10 mg/L
- IC50 [2, 10]: > 10 mg/L
- ID-50 L1210 [2]: > 10 µg/mL
- direct current polarogram ([3]; DC-polarography): two or more reduction waves
- half-wave potential E1.2, wave I ([3]; pH = 8 vs Ag/AgCl): -515 mV
- half-wave potential E1.2, wave III ([3]; pH = 8 vs Ag/AgCl): -600 mV
- half-wave potential E1.2, wave IV ([3]; pH = 8 vs Ag/AgCl): -985 mV

SMILES: N.N.[Cl][Pt][Cl] [Cisplatin, reference compound]
- in vitro activity score, A 204 ([4]; 0.01 μg/ml): -
- in vitro activity score, A 204 ([4]; 0.1 μg/ml): -
- in vitro activity score, A 204 ([4]; 10 μg/ml): +
- in vitro activity score, MCF-7 ([5]; 0.01 μg/ml): -
- in vitro activity score, MCF-7 ([5]; 0.1 μg/ml): -
- in vitro activity score, MCF-7 ([5]; 1.0 μg/ml): -
- in vitro activity score, T 24 ([6]; 0.01 μg/ml): -
- in vitro activity score, T 24 ([6]; 0.1 μg/ml): -
- in vitro activity score, T 24 ([6]; 10 μg/ml): +
- in vitro activity score, WiDr ([7]; 0.01 μg/ml): -
- in vitro activity score, WiDr ([7]; 0.1 μg/ml): -
- in vitro activity score, WiDr ([7]; 1.0 μg/ml): -
- in vitro activity score, WiDr ([7]; 10 μg/ml): +
- in vitro activity score, IgR-37 ([8]; 0.01 μg/ml): -
- in vitro activity score, IgR-37 ([8]; 0.1 μg/ml): -
- in vitro activity score, IgR-37 ([8]; 10 μg/ml): +

SMILES: COC(=O)/C=C/c1c(C(=O)OC)c2c(n1C)C(=O)C=C(NCC(O)CO)C2=O (stereo not shown) [E.O. 23, Methyl 5-(2,3-dihydroxypropyl-1-amino)-3-methoxycarbonyl-1-methyl-2-[1H-indole-4,7-dione]acrylate]
- IC50 [1, 11]: > 10 mg/L
- IC50 [2, 12]: > 10 mg/L
- E1/2, halve wave reduction potential [3]: -343 mV

SMILES: COC(=O)/C=C/c1c(C(=O)OC)c2c(n1C)C(=O)C(C)=C(N1CC1)C2=O [E.O. 34, Methyl 5-aziridino-1,6-dimethyl-3-methoxycarbonyl-2-[1H-indole-4,7-dione]acrylate]
- IC50 ([1]; read-out: ID-50 R-1, Table IA, para-indoloquinone diesters): 2.8 mg/L (≈ 7.81 µM)
- IC50 ([2]; L1210, 48 h, read-out: ID-50 L1210, Table IA, para-indoloquinone diesters): 2.7 mg/L (≈ 7.53 µM)
- E1/2, halve wave reduction potential [3]: -239 mV

SMILES: COC1=C(C)C(=O)c2c(c(COC(C)=O)c(/C=C/COC(C)=O)n2C)C1=O [E.O. 33, 3-Acetoxymethyl-1,6-dimethyl-5-methoxy-2-[1H-indole-4,7-dione]prop-β-en-α-yl acetate]
- IC50 [1, 9]: 2.2 mg/L
- IC50 [2, 10]: 3.6 mg/L
- in vitro activity score, A 204 ([4]; 0.01 μg/ml): -
- in vitro activity score, A 204 ([4]; 0.1 μg/ml): -
- in vitro activity score, A 204 ([4]; 1.0 μg/ml): -
- in vitro activity score, A 204 ([4]; 10 μg/ml): +
- in vitro activity score, MCF-7 ([5]; 0.01 μg/ml): -
- in vitro activity score, MCF-7 ([5]; 0.1 μg/ml): -
- in vitro activity score, MCF-7 ([5]; 1.0 μg/ml): -
- in vitro activity score, T 24 ([6]; 0.01 μg/ml): -
- in vitro activity score, T 24 ([6]; 0.1 μg/ml): -
- in vitro activity score, T 24 ([6]; 1.0 μg/ml): -
- in vitro activity score, T 24 ([6]; 10 μg/ml): +
- in vitro activity score, WiDr ([7]; 0.01 μg/ml): -
- in vitro activity score, WiDr ([7]; 0.1 μg/ml): -
- in vitro activity score, WiDr ([7]; 1.0 μg/ml): -
- in vitro activity score, IgR-37 ([8]; 0.01 μg/ml): -
- in vitro activity score, IgR-37 ([8]; 0.1 μg/ml): -
- in vitro activity score, IgR-37 ([8]; 1.0 μg/ml): -
- in vitro activity score, IgR-37 ([8]; 10 μg/ml): +
